The record followed here is PubChem BioAssay (NCI).

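Step 1: Grow cells in 96-well plates. Step 2: Expose to compound for 48 hours at 5 concentrations. Step 3: Interpolate endpoints linearly; if unreached, use highest concentration. At the GI50, growth is halved. At the TGI there is no net growth.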

Among the test systems are UACC-257 melanoma; NCI-H226 lung; HT29 colon; NCI-H522 lung; K-562 leukemia; HOP-92 NSCLC; NCI-H23 lung; ACHN renal; UO-31 renal; A498 renal.
Experiment in all cases: NCI-60 cell line screen, 48 h

As to `CCOC(=O)C1=C(C)N=c2s/c(=C\c3ccccc3O)c(=O)n2C1c1ccc(OC)c2ccccc12` (centres undefined), the GI50 was 31.8 µM with UACC-257 melanoma; 12.6 µM in the experiment with NCI-H226 lung; 8.29 µM in the experiment with HT29 colon; 13.4 µM in the experiment with NCI-H522 lung; 11.4 µM in the experiment with K-562 leukemia; 16.3 µM in the experiment on HOP-92 NSCLC. For the same compound, the GI50 with NCI-H23 lung is 7.72 µM; in the experiment on ACHN renal, 3.03 µM; in the experiment on UO-31 renal, 15.6 µM. Moreover, the TGI in the experiment on UACC-257 melanoma is greater than 100 µM; in the experiment on NCI-H226 lung, 32.4 µM; in the experiment on HT29 colon, 25.1 µM; in the experiment with NCI-H522 lung it was 44.3 µM; with K-562 leukemia, 67.2 µM; in the experiment with HOP-92 NSCLC it was 35.9 µM. For the same compound, the figures for the TGI with NCI-H23 lung, in the experiment with ACHN renal and in the experiment with UO-31 renal were 30.7 µM, 8.87 µM and 33.1 µM, respectively.
Take `O=c1cc(-c2ccccc2)oc2ccc(OC/C(=N/O)c3ccccc3)cc12`: the GI50 with UACC-257 melanoma is 5.12 µM; in the experiment on NCI-H226 lung it was 15.9 µM; in the experiment with HT29 colon it was 2.02 µM; in the experiment with NCI-H522 lung it was 2.88 µM; in the experiment with K-562 leukemia, 2.53 µM; in the experiment on HOP-92 NSCLC, 25.2 µM. Besides, the GI50 is 2.4 µM with NCI-H23 lung and 4.34 µM in the experiment on UO-31 renal. The TGI in the experiment on UACC-257 melanoma, with NCI-H226 lung, in the experiment on HT29 colon, with NCI-H522 lung, in the experiment with K-562 leukemia and with HOP-92 NSCLC was greater than 50 µM each time. Further, the TGI in the experiment with NCI-H23 lung and in the experiment with UO-31 renal was greater than 50 µM in each case.
As to `O=C(c1ccco1)c1nc2cc(C(F)(F)F)ccc2nc1C(F)(F)F`, the GI50 is greater than 100 µM with A498 renal; greater than 100 µM with UACC-257 melanoma; greater than 100 µM in the experiment on HT29 colon; greater than 100 µM with NCI-H522 lung; greater than 100 µM in the experiment on K-562 leukemia; 27.2 µM in the experiment with HOP-92 NSCLC. Moreover, the GI50 in the experiment on NCI-H23 lung, in the experiment on ACHN renal and in the experiment with UO-31 renal was greater than 100 µM throughout. The TGI in the experiment on A498 renal, in the experiment with UACC-257 melanoma, in the experiment on HT29 colon, in the experiment with NCI-H522 lung, in the experiment with K-562 leukemia and in the experiment with HOP-92 NSCLC was greater than 100 µM each time. Besides, the TGI in the experiment on NCI-H23 lung, in the experiment with ACHN renal and in the experiment with UO-31 renal was greater than 100 µM each time.
Regarding `O=C(COc1ccc(/C=C2\COc3ccccc3C2=O)cc1)Nc1nccs1`, the GI50 in the experiment on A498 renal was 19.3 µM; in the experiment on UACC-257 melanoma, 13.3 µM; in the experiment with NCI-H226 lung, 14.4 µM; with HT29 colon, 3.7 µM; with NCI-H522 lung, 1.91 µM; with K-562 leukemia, 1.6 µM. In addition, the GI50 in the experiment with NCI-H23 lung is 11.2 µM; in the experiment with ACHN renal, 16.6 µM; in the experiment on UO-31 renal it was 11.9 µM. Besides, the TGI stood at 33.7 µM with A498 renal; 30.6 µM in the experiment on UACC-257 melanoma; 29.9 µM in the experiment on NCI-H226 lung; 12.9 µM with HT29 colon; 4.39 µM in the experiment on NCI-H522 lung; 4.64 µM in the experiment on K-562 leukemia. Besides, the TGI with NCI-H23 lung was determined as 25.4 µM; in the experiment on ACHN renal, 42.3 µM; in the experiment on UO-31 renal it was 25.5 µM.
With `COc1ccc2sc3cccc(NCCN(C)C)c3c(=O)c2c1`, the GI50 in the experiment with A498 renal is 1.2 µM; in the experiment with UACC-257 melanoma, 1.78 µM; with NCI-H226 lung it was 3.34 µM; in the experiment on HT29 colon it was 2.03 µM; in the experiment on NCI-H522 lung it was 2.79 µM; in the experiment with K-562 leukemia, 2.37 µM. Further, the GI50 in the experiment with NCI-H23 lung was 3.64 µM; with ACHN renal, 2.4 µM; with UO-31 renal it was 2.06 µM. The TGI in the experiment with A498 renal amounted to 9.38 µM; in the experiment on UACC-257 melanoma it was 3.32 µM; in the experiment with NCI-H226 lung, 14.1 µM; with HT29 colon, 4.6 µM; in the experiment with NCI-H522 lung, 10.1 µM; in the experiment on K-562 leukemia it was 5.2 µM. The results for the TGI in the experiment with NCI-H23 lung, in the experiment with ACHN renal and in the experiment on UO-31 renal were 14.2 µM, 6.92 µM and 6.97 µM, respectively.
Consider `Oc1ccc([Te]CCNCC[Te]c2ccc(O)cc2)cc1`, for which the TGI in the experiment on A498 renal is 46.6 µM; in the experiment on UACC-257 melanoma it was greater than 100 µM; with NCI-H226 lung, 46.4 µM; in the experiment on HT29 colon, greater than 100 µM; in the experiment on K-562 leukemia, greater than 100 µM; in the experiment on NCI-H23 lung it was 23.2 µM. In addition, the TGI with ACHN renal was 94.8 µM; in the experiment with UO-31 renal it was 31.7 µM.
Consider `O=C1/C(=C\c2ccc(F)cc2)CN(C(=O)c2ccccc2)C/C1=C\c1ccc(F)cc1`, for which the GI50 is 2.41 µM with UACC-257 melanoma; 26.6 µM in the experiment with NCI-H226 lung; 1.67 µM with HT29 colon; 2.35 µM in the experiment on NCI-H522 lung; 0.983 µM in the experiment on K-562 leukemia; 1.48 µM with HOP-92 NSCLC. The GI50 in the experiment on NCI-H23 lung is 4.83 µM; in the experiment with ACHN renal, 1.75 µM; in the experiment on UO-31 renal, 2.4 µM. The TGI with UACC-257 melanoma is 8.52 µM; in the experiment on NCI-H226 lung, greater than 100 µM; in the experiment on HT29 colon it was 4.34 µM; in the experiment on NCI-H522 lung, 7.73 µM; in the experiment with K-562 leukemia it was greater than 100 µM; with HOP-92 NSCLC it was 9.1 µM. The results for the TGI in the experiment on NCI-H23 lung, in the experiment with ACHN renal and in the experiment with UO-31 renal were 21.8 µM, 3.77 µM and 10.6 µM, respectively.
For the compound `Nc1ccccc1NC(=O)c1ccc(CNc2nccc(-c3cccnc3)n2)cc1`, the GI50 with UACC-257 melanoma was 0.73 µM; with NCI-H226 lung it was 1.79 µM; with HT29 colon, 0.364 µM; with NCI-H522 lung, 0.337 µM; in the experiment on K-562 leukemia, 0.358 µM; in the experiment with HOP-92 NSCLC it was 0.206 µM. Moreover, the GI50 is 1.4 µM with NCI-H23 lung, 1.14 µM in the experiment with ACHN renal and 0.978 µM in the experiment on UO-31 renal. Moreover, the TGI in the experiment with NCI-H226 lung is 23.6 µM; in the experiment with HT29 colon it was 6.28 µM; in the experiment on NCI-H522 lung it was 1.76 µM; in the experiment on K-562 leukemia it was greater than 100 µM; in the experiment with HOP-92 NSCLC, 2.7 µM; in the experiment on NCI-H23 lung, greater than 68.1 µM. Besides, the TGI with ACHN renal is greater than 27.8 µM; in the experiment with UO-31 renal, greater than 77.2 µM.
With `COc1c(C)cc(O)cc1C=O`, the TGI in the experiment on UACC-257 melanoma, with NCI-H226 lung, with HT29 colon, in the experiment with NCI-H522 lung, in the experiment on K-562 leukemia and in the experiment on HOP-92 NSCLC was greater than 100 µM in each case. Also, the TGI in the experiment on ACHN renal and in the experiment with UO-31 renal was greater than 100 µM in each case.
